Test results: patent US20060025328A1, “Compositions suitable for controlled release of the hormone GnRH and its analogs” (priority 1997, published 2006)

Tested on: LH
Assay: LH concentrations in synchronized dairy heifers, Example 6
Type: in vivo
Details: GnRH (100 μg) positive control
Description: Experimental formulations were prepared by weighing and mixing SAIB, solvent and deslorelin acetate (DA) to give a final concentration of 25 μg/ml. The SAIB: diluting solvent composition was:SAIB/propylene carbonate 70:30 w/w). Experimental DA Treatments were sterilized using gamma radiation. 30 healthy cyclic dairy heifers weighing about 750-800 lbs (340-364 kg) were used. This study was designed as a parallel group design. All heifers were synchronized using pretreatment with 100 μg GnRH (Cystorellin, Merial, Ltd., Islin, NJ) on day -7 followed by 25 mg PGF2α (Lutalyse Pharmacia-Upjohn Co. Kalamazoo, Mich.) treatment one week later. Forty eight hours after PGF2α treatment heifers received saline (negative controls), Cystorellin ([…]; positive controls) or Deslorelin-SABER (DA-slow delivery preparation; at 12.5, 25, 50 or 100 μg intra-muscular). Blood samples were collected by veni-puncture through shaved and aseptic-swabbed sites at -48, 0, 0.5, 1, 2, 4, 6, 12, 18, 24, 36, and 48 hours after treatment for LH analysis. […] were randomly assigned to one of 6 blinded treatment groups (n=5/group) to avoid interpretation bias.

In the case of “GnRH: GnRH (Cystorellin, Merial, Ltd.), positive control (QHWSYGLRPG; Gonadoliberin-1; UniProt P01148 24-33, looked up)”, the “LH concentration at peak (average)” value is reported as 22.3 ng/mL and the “time of peak LH post-treatment” value is reported as 1 h.
